# Results published in patent US20100152215A1, “METHODS OF IDENTIFYING ACTIVATORS OF LYN KINASE” (MELIOR PHARMACEUTICALS I, INC., priority 2007, published 2010).
# How the values were obtained:
# Experiment in all cases: kinase screen for inhibition or activation
# Format in all cases: biochemical
# AMPK = details: 10 μM, positive = activation, negative = inhibition
# Experimental: (§1) A kinase screen was conducted in which Compound 102 (10 μM) was screened against 49 kinases for inhibition or activation. Any kinase that was activated or inhibited by at least 20% was considered to be a significant effect. Of the 49 kinases screened, Lyn kinase was activated by 51%. In a repeat experiment, Lyn kinase activity was increased by 57%.
# Abl = Abl (Homo sapiens, UniProt P00519); details: 10 μM
# Experimental: as §1
# Akt1 = Akt1 (Homo sapiens, UniProt P31749); details: 10 μM
# Experimental: as §1
# Akt2 = Akt2 (Homo sapiens, UniProt P31751); details: 10 μM
# Experimental: as §1
# AurA = AurA (Homo sapiens, UniProt O14965); details: 10 μM
# Experimental: as §1
# BTK = BTK (Homo sapiens, UniProt Q06187); details: 10 μM
# Experimental: as §1
# CDK2/cyclinA = CDK2/cyclinA (Homo sapiens, UniProt P24941); details: 10 μM
# Experimental: as §1
# CHK1 = CHK1 (Homo sapiens, UniProt O14757); details: 10 μM
# Experimental: as §1
# CHK2 = CHK2 (Homo sapiens, UniProt O96017); details: 10 μM
# Experimental: as §1
# CK1d = CK1d (Homo sapiens, UniProt P48730); details: 10 μM
# Experimental: as §1
# CaMK2a = CaMK2a (Homo sapiens, UniProt Q9UQM7); details: 10 μM
# Experimental: as §1
# CaMK4 = CaMK4 (Homo sapiens, UniProt Q16566); details: 10 μM
# Experimental: as §1
# EphA2 = EphA2 (Homo sapiens, UniProt P29317); details: 10 μM
# Experimental: as §1
# FGFR3 = FGFR3 (Homo sapiens, UniProt P22607); details: 10 μM
# Experimental: as §1
# Flt3 = Flt3 (Homo sapiens, UniProt P36888); details: 10 μM
# Experimental: as §1
# Fyn = Fyn (Homo sapiens, UniProt P06241); details: 10 μM
# Experimental: as §1
# GSK3b = GSK3b (Homo sapiens, UniProt P49841); details: 10 μM
# Experimental: as §1
# IGF1R = IGF1R (Homo sapiens, UniProt P08069)
# Experimental: as §1
# IKKb = IKKb (Homo sapiens, UniProt O14920); details: 10 μM
# Experimental: as §1
# IRAK4 = IRAK4 (Homo sapiens, UniProt Q9NWZ3); details: 10 μM
# Experimental: as §1
# InsR = InsR (Homo sapiens, UniProt P06213); details: 10 μM
# Experimental: as §1
# JNK2 = JNK2 (Homo sapiens, UniProt P45984); details: 10 μM
# Experimental: as §1
# KDR (FLK1, VEGFR2) = KDR (FLK1, VEGFR2) (Homo sapiens, UniProt P35968); details: 10 μM
# Experimental: as §1
# Lck = Lck (Homo sapiens, UniProt P06239); details: 10 μM
# Experimental: as §1
# Lyn = Lyn (Homo sapiens, UniProt P07948); details: 10 μM
# Experimental: as §1
# MAPK1 = MAPK1 (Homo sapiens, UniProt P28482); details: 10 μM
# Experimental: as §1
# MAPK14 (P38) = MAPK14 (P38) (Homo sapiens, UniProt Q16539); details: 10 μM
# Experimental: as §1
# MAPK3 (p38) = details: 10 μM
# Experimental: as §1
# MAPKAP2 = MAPKAP2 (Homo sapiens, UniProt P49137); details: 10 μM
# Experimental: as §1
# Chain of Lyn (P07948 whole entry): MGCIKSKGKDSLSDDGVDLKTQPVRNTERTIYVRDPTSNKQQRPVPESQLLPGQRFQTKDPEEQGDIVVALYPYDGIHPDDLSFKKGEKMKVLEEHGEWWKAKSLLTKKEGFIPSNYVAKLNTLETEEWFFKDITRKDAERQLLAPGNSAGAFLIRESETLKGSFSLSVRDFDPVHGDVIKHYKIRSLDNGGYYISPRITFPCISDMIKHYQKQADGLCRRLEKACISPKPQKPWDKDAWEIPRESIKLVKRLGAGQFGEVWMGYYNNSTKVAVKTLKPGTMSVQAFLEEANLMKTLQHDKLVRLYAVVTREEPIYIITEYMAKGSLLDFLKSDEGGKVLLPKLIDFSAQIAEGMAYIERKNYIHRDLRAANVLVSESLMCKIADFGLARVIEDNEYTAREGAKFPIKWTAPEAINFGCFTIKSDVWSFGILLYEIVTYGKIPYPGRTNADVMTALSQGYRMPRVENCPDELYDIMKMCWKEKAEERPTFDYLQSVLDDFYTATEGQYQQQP
# Chain of IGF1R (P08069 31-1367, species assumed): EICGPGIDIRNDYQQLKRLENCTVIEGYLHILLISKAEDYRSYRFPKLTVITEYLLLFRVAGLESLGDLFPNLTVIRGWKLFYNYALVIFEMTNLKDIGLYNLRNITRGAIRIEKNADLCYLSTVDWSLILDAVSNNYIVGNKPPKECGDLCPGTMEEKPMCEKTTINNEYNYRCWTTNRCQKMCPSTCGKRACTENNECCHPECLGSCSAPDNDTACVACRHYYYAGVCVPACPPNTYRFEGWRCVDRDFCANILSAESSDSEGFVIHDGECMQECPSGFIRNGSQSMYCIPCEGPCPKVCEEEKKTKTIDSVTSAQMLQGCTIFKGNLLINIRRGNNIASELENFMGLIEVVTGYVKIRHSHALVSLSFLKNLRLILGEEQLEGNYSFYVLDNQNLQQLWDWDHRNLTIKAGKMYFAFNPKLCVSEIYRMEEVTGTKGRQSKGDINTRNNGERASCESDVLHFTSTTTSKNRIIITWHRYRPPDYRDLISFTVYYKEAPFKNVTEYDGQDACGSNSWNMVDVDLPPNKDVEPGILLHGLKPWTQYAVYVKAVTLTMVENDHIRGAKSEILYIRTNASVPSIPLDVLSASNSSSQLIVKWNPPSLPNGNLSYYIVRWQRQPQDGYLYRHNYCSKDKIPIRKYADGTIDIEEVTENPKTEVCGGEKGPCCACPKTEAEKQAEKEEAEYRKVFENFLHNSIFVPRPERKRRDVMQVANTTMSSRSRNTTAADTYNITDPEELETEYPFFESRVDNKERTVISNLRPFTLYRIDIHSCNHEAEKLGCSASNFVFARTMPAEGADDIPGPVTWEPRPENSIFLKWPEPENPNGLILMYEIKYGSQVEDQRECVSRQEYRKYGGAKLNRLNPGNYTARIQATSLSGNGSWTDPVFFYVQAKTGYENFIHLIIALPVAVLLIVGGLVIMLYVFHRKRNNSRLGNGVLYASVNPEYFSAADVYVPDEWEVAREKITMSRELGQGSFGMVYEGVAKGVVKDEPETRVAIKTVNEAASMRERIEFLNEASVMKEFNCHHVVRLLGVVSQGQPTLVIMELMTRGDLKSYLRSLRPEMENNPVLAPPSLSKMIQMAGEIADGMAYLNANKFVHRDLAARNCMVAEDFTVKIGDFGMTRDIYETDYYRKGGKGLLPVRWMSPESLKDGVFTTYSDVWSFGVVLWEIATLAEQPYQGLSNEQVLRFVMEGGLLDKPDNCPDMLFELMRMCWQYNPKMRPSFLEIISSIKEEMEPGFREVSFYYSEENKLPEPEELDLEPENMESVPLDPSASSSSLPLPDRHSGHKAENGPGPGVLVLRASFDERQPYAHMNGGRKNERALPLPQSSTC
# Chain of MAPKAP2 (P49137 whole entry): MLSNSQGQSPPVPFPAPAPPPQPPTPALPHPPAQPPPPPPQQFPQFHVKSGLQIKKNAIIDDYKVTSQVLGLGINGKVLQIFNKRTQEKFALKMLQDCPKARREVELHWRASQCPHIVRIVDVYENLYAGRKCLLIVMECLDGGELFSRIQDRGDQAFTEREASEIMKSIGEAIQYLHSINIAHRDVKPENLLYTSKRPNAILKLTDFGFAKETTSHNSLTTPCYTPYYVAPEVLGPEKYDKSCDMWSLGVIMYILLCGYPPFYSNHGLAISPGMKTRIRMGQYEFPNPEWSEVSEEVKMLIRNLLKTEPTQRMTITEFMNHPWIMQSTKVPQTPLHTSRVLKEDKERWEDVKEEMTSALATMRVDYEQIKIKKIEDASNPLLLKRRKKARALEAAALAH
# Chain of JNK2 (P45984 whole entry, species assumed): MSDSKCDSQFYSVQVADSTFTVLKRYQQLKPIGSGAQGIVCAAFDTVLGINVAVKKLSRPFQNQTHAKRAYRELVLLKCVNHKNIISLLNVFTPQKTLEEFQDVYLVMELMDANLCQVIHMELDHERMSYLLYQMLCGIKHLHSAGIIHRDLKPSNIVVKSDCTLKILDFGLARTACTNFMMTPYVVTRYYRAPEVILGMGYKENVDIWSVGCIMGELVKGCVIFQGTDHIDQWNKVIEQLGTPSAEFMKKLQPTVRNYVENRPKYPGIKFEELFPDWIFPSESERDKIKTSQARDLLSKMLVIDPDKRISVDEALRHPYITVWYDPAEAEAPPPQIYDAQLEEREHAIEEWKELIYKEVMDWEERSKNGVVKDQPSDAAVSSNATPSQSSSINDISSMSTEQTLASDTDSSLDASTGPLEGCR
# Chain of IRAK4 (Q9NWZ3 whole entry, species assumed): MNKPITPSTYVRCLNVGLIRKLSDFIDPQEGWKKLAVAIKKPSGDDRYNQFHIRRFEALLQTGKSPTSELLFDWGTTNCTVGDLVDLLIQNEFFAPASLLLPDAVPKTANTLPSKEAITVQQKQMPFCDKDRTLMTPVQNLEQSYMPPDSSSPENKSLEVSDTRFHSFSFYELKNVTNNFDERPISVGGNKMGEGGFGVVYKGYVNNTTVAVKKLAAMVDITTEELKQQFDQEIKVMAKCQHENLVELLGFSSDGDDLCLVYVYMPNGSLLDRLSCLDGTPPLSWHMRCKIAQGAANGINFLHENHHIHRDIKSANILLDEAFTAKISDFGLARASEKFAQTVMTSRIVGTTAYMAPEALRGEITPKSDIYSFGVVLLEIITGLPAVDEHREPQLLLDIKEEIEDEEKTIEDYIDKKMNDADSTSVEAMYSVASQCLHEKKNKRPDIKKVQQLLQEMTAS
# Chain of MAPK1 (P28482 whole entry, species assumed): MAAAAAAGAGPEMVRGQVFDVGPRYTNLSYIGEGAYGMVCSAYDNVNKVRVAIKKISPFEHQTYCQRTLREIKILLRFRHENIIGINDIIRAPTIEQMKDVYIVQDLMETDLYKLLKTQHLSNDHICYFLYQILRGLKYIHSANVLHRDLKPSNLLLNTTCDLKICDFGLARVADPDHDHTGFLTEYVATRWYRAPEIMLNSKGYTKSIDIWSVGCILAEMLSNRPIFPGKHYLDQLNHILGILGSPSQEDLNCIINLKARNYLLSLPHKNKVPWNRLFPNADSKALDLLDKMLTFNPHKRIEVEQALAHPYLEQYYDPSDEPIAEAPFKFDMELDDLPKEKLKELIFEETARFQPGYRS
# Chain of Akt1 (P31749 whole entry, species assumed): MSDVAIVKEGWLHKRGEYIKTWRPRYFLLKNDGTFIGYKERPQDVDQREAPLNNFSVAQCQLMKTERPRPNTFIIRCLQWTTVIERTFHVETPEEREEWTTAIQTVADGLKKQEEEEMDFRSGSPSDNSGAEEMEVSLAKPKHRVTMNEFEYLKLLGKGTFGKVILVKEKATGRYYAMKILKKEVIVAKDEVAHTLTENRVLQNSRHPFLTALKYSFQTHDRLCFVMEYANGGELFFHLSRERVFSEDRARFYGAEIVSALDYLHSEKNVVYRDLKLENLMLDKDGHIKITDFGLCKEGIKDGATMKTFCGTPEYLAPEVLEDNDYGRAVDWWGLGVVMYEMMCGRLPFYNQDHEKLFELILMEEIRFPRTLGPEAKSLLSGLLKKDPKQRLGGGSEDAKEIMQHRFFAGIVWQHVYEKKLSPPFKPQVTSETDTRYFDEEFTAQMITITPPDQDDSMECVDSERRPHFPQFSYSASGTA
# Chain of MAPK14 (P38) (Q16539 whole entry, species assumed): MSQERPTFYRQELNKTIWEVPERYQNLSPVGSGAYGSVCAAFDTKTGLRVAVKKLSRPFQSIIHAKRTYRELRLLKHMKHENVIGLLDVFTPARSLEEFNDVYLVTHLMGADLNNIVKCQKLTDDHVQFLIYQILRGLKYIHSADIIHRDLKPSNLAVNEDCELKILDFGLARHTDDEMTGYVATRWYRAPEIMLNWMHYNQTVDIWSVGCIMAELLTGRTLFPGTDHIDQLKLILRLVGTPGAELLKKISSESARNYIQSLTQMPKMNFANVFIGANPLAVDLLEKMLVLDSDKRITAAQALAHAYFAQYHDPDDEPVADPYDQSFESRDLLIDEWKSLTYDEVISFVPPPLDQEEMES
# Chain of CaMK2a (Q9UQM7 whole entry, species assumed): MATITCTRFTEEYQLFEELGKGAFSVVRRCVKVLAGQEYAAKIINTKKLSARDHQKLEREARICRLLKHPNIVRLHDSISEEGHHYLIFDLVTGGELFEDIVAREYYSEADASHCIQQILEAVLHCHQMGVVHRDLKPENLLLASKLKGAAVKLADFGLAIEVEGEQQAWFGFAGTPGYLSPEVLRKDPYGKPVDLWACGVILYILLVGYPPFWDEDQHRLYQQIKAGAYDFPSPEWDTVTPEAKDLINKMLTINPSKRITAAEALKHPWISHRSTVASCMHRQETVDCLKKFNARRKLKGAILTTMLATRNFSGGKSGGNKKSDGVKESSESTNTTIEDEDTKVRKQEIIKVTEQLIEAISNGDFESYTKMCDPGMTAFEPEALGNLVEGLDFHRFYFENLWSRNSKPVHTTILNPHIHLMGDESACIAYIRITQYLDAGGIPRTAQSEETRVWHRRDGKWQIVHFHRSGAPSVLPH
compound,measurement,setting,value
Cc1cccc(Oc2cnc(=O)[nH]c2)c1 [Compound 102],COMPOUND 102 ACTIVITY (% KINASE ACTIVITY),AMPK,−0.95%
same,COMPOUND 102 ACTIVITY (% KINASE ACTIVITY),Abl,−4.04%
same,COMPOUND 102 ACTIVITY (% KINASE ACTIVITY),Akt1,1.51%
same,COMPOUND 102 ACTIVITY (% KINASE ACTIVITY),Akt2,−6.83%
same,COMPOUND 102 ACTIVITY (% KINASE ACTIVITY),AurA,−12.21%
same,COMPOUND 102 ACTIVITY (% KINASE ACTIVITY),BTK,10%
same,COMPOUND 102 ACTIVITY (% KINASE ACTIVITY),CDK2/cyclinA,−3.93%
same,COMPOUND 102 ACTIVITY (% KINASE ACTIVITY),CHK1,0.87%
same,COMPOUND 102 ACTIVITY (% KINASE ACTIVITY),CHK2,−6.17%
same,COMPOUND 102 ACTIVITY (% KINASE ACTIVITY),CK1d,−1.5%
same,COMPOUND 102 ACTIVITY (% KINASE ACTIVITY),CaMK2a,0.08%
same,COMPOUND 102 ACTIVITY (% KINASE ACTIVITY),CaMK4,17.35%
same,COMPOUND 102 ACTIVITY (% KINASE ACTIVITY),EphA2,1.03%
same,COMPOUND 102 ACTIVITY (% KINASE ACTIVITY),FGFR3,−1.58%
same,COMPOUND 102 ACTIVITY (% KINASE ACTIVITY),Flt3,7.34%
same,COMPOUND 102 ACTIVITY (% KINASE ACTIVITY),Fyn,−4.64%
same,COMPOUND 102 ACTIVITY (% KINASE ACTIVITY),GSK3b,2.47%
same,COMPOUND 102 ACTIVITY (% KINASE ACTIVITY),"IGF1R; IGF1R, 10 μM",−20.18%
same,inhibition at 10 µM,"IGF1R; inhibition, read-out: insulin-like growth factor receptor activity inhibited by",20.1%
same,COMPOUND 102 ACTIVITY (% KINASE ACTIVITY),IKKb,−6.26%
same,COMPOUND 102 ACTIVITY (% KINASE ACTIVITY),IRAK4,2.25%
same,COMPOUND 102 ACTIVITY (% KINASE ACTIVITY),InsR,16.92%
same,COMPOUND 102 ACTIVITY (% KINASE ACTIVITY),JNK2,−4.8%
same,COMPOUND 102 ACTIVITY (% KINASE ACTIVITY),"KDR (FLK1, VEGFR2)",0%
same,COMPOUND 102 ACTIVITY (% KINASE ACTIVITY),Lck,6.28%
same,COMPOUND 102 ACTIVITY (% KINASE ACTIVITY),"Lyn; Lyn (repeat), repeat experiment, activation",57%
same,COMPOUND 102 ACTIVITY (% KINASE ACTIVITY),"Lyn; Lyn (repeat), repeat experiment, activation, listed as COMPOUND 102, 10 µM",57.11%
same,COMPOUND 102 ACTIVITY (% KINASE ACTIVITY),"Lyn; Lyn, first screen, activation",51%
same,COMPOUND 102 ACTIVITY (% KINASE ACTIVITY),"Lyn; Lyn, first screen, activation, listed as COMPOUND 102, 10 µM",51.05%
same,COMPOUND 102 ACTIVITY (% KINASE ACTIVITY),"Lyn; Lyn, third Lyn line of the table",57%
same,COMPOUND 102 ACTIVITY (% KINASE ACTIVITY),MAPK1,0.6%
same,COMPOUND 102 ACTIVITY (% KINASE ACTIVITY),MAPK14 (P38),1.74%
same,COMPOUND 102 ACTIVITY (% KINASE ACTIVITY),MAPK3 (p38),−6.05%
same,COMPOUND 102 ACTIVITY (% KINASE ACTIVITY),MAPKAP2,−13.04%
